ChEMBL document CHEMBL4138123, “Design, synthesis and biological evaluation of novel pyrazolochalcones as potential modulators of PI3K/Akt/mTOR pathway and inducers of apoptosis in breast cancer cells” (Eur J Med Chem, 2017)

Legend:
OVCAR-8 [1] = assay: Cytotoxicity against human OVCAR8 cells assessed as cell growth at 10 uM after 48 hrs by sulforhodamine B assay relative to control; format: functional; details: OVCAR-8, 48 h, read-out: Activity
SN12C = assay: Cytotoxicity against human SN12C cells assessed as cell growth at 10 uM after 48 hrs by sulforhodamine B assay relative to control; format: functional; details: read-out: Activity
MDA-MB-231 [2] = assay: Cytotoxicity against human MDA-MB-231 cells assessed as cell growth at 0.1 uM after 48 hrs by sulforhodamine B assay relative to control; format: functional; details: MDA-MB-231, 48 h, read-out: Activity
KM12 = assay: Cytotoxicity against human KM12 cells assessed as cell growth at 10 uM after 48 hrs by sulforhodamine B assay relative to control; format: functional; details: KM12, 48 h, read-out: Activity
BT-549 = assay: Cytotoxicity against human BT549 cells assessed as cell growth at 10 uM after 48 hrs by sulforhodamine B assay relative to control; format: functional; details: BT-549, 48 h, read-out: Activity
NCI-H23 [3] = assay: Cytotoxicity against human NCI-H23 cells assessed as cell growth at 1 uM after 48 hrs by sulforhodamine B assay relative to control; format: functional; details: NCI-H23, 48 h, read-out: Activity
U-251 = assay: Cytotoxicity against human U251 cells assessed as growth inhibition after 48 hrs by sulforhodamine B assay; format: functional; details: U-251, 48 h
HCC 2998 = assay: Cytotoxicity against human HCC2998 cells assessed as cell growth at 10 uM after 48 hrs by sulforhodamine B assay relative to control; format: functional; details: HCC 2998, 48 h, read-out: Activity
OVCAR-3 = assay: Cytotoxicity against human OVCAR3 cells assessed as cell growth at 10 uM after 48 hrs by sulforhodamine B assay relative to control; format: functional; details: OVCAR-3, 48 h, read-out: Activity
NCI-H23 [4] = assay: Cytotoxicity against human NCI-H23 cells assessed as cell growth at 0.1 uM after 48 hrs by sulforhodamine B assay relative to control; format: functional; details: NCI-H23, 48 h, read-out: Activity
ACHN = assay: Cytotoxicity against human ACHN cells assessed as cell growth at 0.1 uM after 48 hrs by sulforhodamine B assay relative to control; format: functional; details: read-out: Activity
MDA-MB-435 = assay: Cytotoxicity against human MDA-MB-435 cells assessed as cell growth at 0.1 uM after 48 hrs by sulforhodamine B assay relative to control; format: functional; details: MDA-MB-435, 48 h, read-out: Activity
MDA-MB-231 [5] = assay: Cytotoxicity against human MDA-MB-231 cells assessed as growth inhibition after 48 hrs by MTT assay; format: functional, cell-based; details: MDA-MB-231, 48 h
SK-MEL-28 [6] = assay: Cytotoxicity against human SK-MEL-28 cells assessed as cell growth at 10 uM after 48 hrs by sulforhodamine B assay relative to control; format: functional; details: SK-MEL-28, 48 h, read-out: Activity
COLO 205 [7] = assay: Cytotoxicity against human COLO205 cells assessed as growth inhibition after 48 hrs by sulforhodamine B assay; format: functional; details: COLO 205, 48 h
SF-268 [8] = assay: Cytotoxicity against human SF268 cells assessed as cell growth at 100 uM after 48 hrs by sulforhodamine B assay relative to control; format: functional; details: SF-268, 48 h, read-out: Activity
MOLT-4 = assay: Cytotoxicity against human MOLT4 cells assessed as cell growth at 0.01 uM after 48 hrs by sulforhodamine B assay relative to control; format: functional; details: MOLT-4, 48 h, read-out: Activity
COLO 205 [9] = assay: Cytotoxicity against human COLO205 cells assessed as cell growth at 0.01 uM after 48 hrs by sulforhodamine B assay relative to control; format: functional; details: COLO 205, 48 h, read-out: Activity
K562 = assay: Cytotoxicity against human K562 cells assessed as cell growth at 100 uM after 48 hrs by sulforhodamine B assay relative to control; format: functional; details: K562, 48 h, read-out: Activity
MDA-MB-231 [10] = assay: Cytotoxicity against human MDA-MB-231 cells assessed as cell growth at 0.01 uM after 48 hrs by sulforhodamine B assay relative to control; format: functional; details: MDA-MB-231, 48 h, read-out: Activity
UACC-257 = assay: Cytotoxicity against human UACC257 cells assessed as growth inhibition after 48 hrs by sulforhodamine B assay; format: functional; details: UACC-257, 48 h
UACC-62 = assay: Cytotoxicity against human UACC62 cells assessed as cell growth at 0.01 uM after 48 hrs by sulforhodamine B assay relative to control; format: functional; details: UACC-62, 48 h, read-out: Activity
OVCAR-8 [11] = assay: Cytotoxicity against human OVCAR8 cells assessed as cell growth at 0.01 uM after 48 hrs by sulforhodamine B assay relative to control; format: functional; details: OVCAR-8, 48 h, read-out: Activity
Hs-578T = assay: Cytotoxicity against human Hs 578T cells assessed as cell growth at 0.01 uM after 48 hrs by sulforhodamine B assay relative to control; format: functional; details: read-out: Activity
SF-268 [12] = assay: Cytotoxicity against human SF268 cells assessed as cell growth at 0.01 uM after 48 hrs by sulforhodamine B assay relative to control; format: functional; details: SF-268, 48 h, read-out: Activity
A498 = assay: Cytotoxicity against human A498 cells assessed as cell growth at 10 uM after 48 hrs by sulforhodamine B assay relative to control; format: functional; details: A498, 48 h, read-out: Activity
HL-60(TB) = assay: Cytotoxicity against human HL-60(TB) cells assessed as cell growth at 10 uM after 48 hrs by sulforhodamine B assay relative to control; format: functional; details: HL-60, 48 h, read-out: Activity
HCT-116 = assay: Cytotoxicity against human HCT116 cells assessed as cell growth at 100 uM after 48 hrs by sulforhodamine B assay relative to control; format: functional; details: HCT-116, 48 h, read-out: Activity
MDA-MB-468 [13] = assay: Cytotoxicity against human MDA-MB-468 cells assessed as cell growth at 0.1 uM after 48 hrs by sulforhodamine B assay relative to control; format: functional; details: MDA-MB-468, 48 h, read-out: Activity
PC-3 = assay: Cytotoxicity against human PC3 cells assessed as cell growth at 1 uM after 48 hrs by sulforhodamine B assay relative to control; format: functional; details: PC-3, 48 h, read-out: Activity
OVCAR-8 [14] = assay: Cytotoxicity against human OVCAR8 cells assessed as cell growth at 1 uM after 48 hrs by sulforhodamine B assay relative to control; format: functional; details: OVCAR-8, 48 h, read-out: Activity
MDA-MB-468 [15] = assay: Cytotoxicity against human MDA-MB-468 cells assessed as cell growth at 0.01 uM after 48 hrs by sulforhodamine B assay relative to control; format: functional; details: MDA-MB-468, 48 h, read-out: Activity
SK-MEL-28 [16] = assay: Cytotoxicity against human SK-MEL-28 cells assessed as cell growth at 0.01 uM after 48 hrs by sulforhodamine B assay relative to control; format: functional; details: SK-MEL-28, 48 h, read-out: Activity
MDA-MB-231 [17] = assay: Cytotoxicity against human MDA-MB-231 cells assessed as cell growth at 10 uM after 48 hrs by sulforhodamine B assay relative to control; format: functional; details: MDA-MB-231, 48 h, read-out: Activity
SR = assay: Cytotoxicity against human SR cells assessed as cell growth at 0.1 uM after 48 hrs by sulforhodamine B assay relative to control; format: functional; details: read-out: Activity
HCT-15 = assay: Cytotoxicity against human HCT15 cells assessed as growth inhibition after 48 hrs by sulforhodamine B assay; format: functional; details: HCT-15, 48 h

## COc1cc(-c2cc(/C=C/C(=O)c3ccc(Cl)c(Cl)c3)[nH]n2)cc(OC)c1OC
OVCAR-8 [1]
  growth at 10 µM: 40%
SN12C
  growth at 10 µM: 56%
MDA-MB-231 [2]
  growth at 0.1 µM: 102%
KM12
  growth at 10 µM: 19%
BT-549
  growth at 10 µM: 47%
NCI-H23 [3]
  growth at 1 µM: 95%
U-251
  LC50: > 100 µM
  TGI: 80.5 µM
HCC 2998
  growth at 10 µM: 49%
OVCAR-3
  growth at 10 µM: 40%
NCI-H23 [4]
  growth at 0.1 µM: 92%
ACHN
  growth at 0.1 µM: 105%
MDA-MB-435
  growth at 0.1 µM: 96%
MDA-MB-231 [5]
  IC50: 2.1 µM
SK-MEL-28 [6]
  growth at 10 µM: 73%
COLO 205 [7]
  LC50: > 100 µM
  TGI: 15.8 µM
SF-268 [8]
  growth at 100 µM: -15%
MOLT-4
  growth at 0.01 µM: 98%
COLO 205 [9]
  growth at 0.01 µM: 103%
K562
  growth at 100 µM: -7%
MDA-MB-231 [10]
  growth at 0.01 µM: 103%
UACC-257
  LC50: > 100 µM
  TGI: 74 µM
UACC-62
  growth at 0.01 µM: 97%
OVCAR-8 [11]
  growth at 0.01 µM: 94%
Hs-578T
  growth at 0.01 µM: 98%
SF-268 [12]
  growth at 0.01 µM: 92%
A498
  growth at 10 µM: 43%
HL-60(TB)
  growth at 10 µM: 43%
HCT-116
  growth at 100 µM: -32%
MDA-MB-468 [13]
  growth at 0.1 µM: 91%
PC-3
  growth at 1 µM: 87%
OVCAR-8 [14]
  growth at 1 µM: 88%
MDA-MB-468 [15]
  growth at 0.01 µM: 94%
SK-MEL-28 [16]
  growth at 0.01 µM: 108%
MDA-MB-231 [17]
  growth at 10 µM: 47%
SR
  growth at 0.1 µM: 89%

## COc1ccc(C(=O)/C=C/c2cc(-c3ccc(OC)c(OC)c3)n[nH]2)cc1OC
OVCAR-8 [1]
  growth at 10 µM: 8%
SN12C
  growth at 10 µM: -40%
MDA-MB-231 [2]
  growth at 0.1 µM: 99%
KM12
  growth at 10 µM: -80%
BT-549
  growth at 10 µM: -87%
NCI-H23 [3]
  growth at 1 µM: 94%
U-251
  GI50: 1.2 µM
  TGI: 2.63 µM
HCC 2998
  growth at 10 µM: -94%
OVCAR-3
  growth at 10 µM: -43%
NCI-H23 [4]
  growth at 0.1 µM: 103%
ACHN
  growth at 0.1 µM: 96%
HCT-15
  GI50: 1.09 µM
  TGI: 5.39 µM
MDA-MB-435
  growth at 0.1 µM: 94%
MDA-MB-231 [5]
  IC50: 1.1 µM
SK-MEL-28 [6]
  growth at 10 µM: -38%
COLO 205 [7]
  GI50: 1.55 µM
  TGI: 3.1 µM
SF-268 [8]
  growth at 100 µM: -25%
MOLT-4
  growth at 0.01 µM: 103%
COLO 205 [9]
  growth at 0.01 µM: 90%
MDA-MB-231 [10]
  growth at 0.01 µM: 108%
UACC-257
  GI50: 2.16 µM
  TGI: 5.02 µM
UACC-62
  growth at 0.01 µM: 95%
OVCAR-8 [11]
  growth at 0.01 µM: 99%
Hs-578T
  growth at 0.01 µM: 93%
SF-268 [12]
  growth at 0.01 µM: 96%
A498
  growth at 10 µM: -62%
HL-60(TB)
  growth at 10 µM: 4%
HCT-116
  growth at 100 µM: -45%
MDA-MB-468 [13]
  growth at 0.1 µM: 80%
PC-3
  growth at 1 µM: 69%
OVCAR-8 [14]
  growth at 1 µM: 80%
MDA-MB-468 [15]
  growth at 0.01 µM: 87%
SK-MEL-28 [16]
  growth at 0.01 µM: 89%
MDA-MB-231 [17]
  growth at 10 µM: -18%
SR
  growth at 0.1 µM: 81%

## COc1cc(-c2cc(/C=C/C(=O)c3ccc(N)cc3)[nH]n2)cc(OC)c1OC
OVCAR-8 [1]
  growth at 10 µM: -1%
SN12C
  growth at 10 µM: -45%
MDA-MB-231 [2]
  growth at 0.1 µM: 91%
KM12
  growth at 10 µM: -67%
BT-549
  growth at 10 µM: -89%
NCI-H23 [3]
  growth at 1 µM: 95%
U-251
  GI50: 1.42 µM
  LC50: 5.39 µM
  TGI: 2.77 µM
HCC 2998
  growth at 10 µM: -86%
OVCAR-3
  growth at 10 µM: -71%
NCI-H23 [4]
  growth at 0.1 µM: 105%
ACHN
  growth at 0.1 µM: 97%
HCT-15
  GI50: 1.37 µM
  LC50: > 100 µM
  TGI: 6.76 µM
MDA-MB-435
  growth at 0.1 µM: 95%
MDA-MB-231 [5]
  IC50: 2 µM
SK-MEL-28 [6]
  growth at 10 µM: -57%
COLO 205 [7]
  GI50: 1.74 µM
  LC50: 6.42 µM
  TGI: 3.34 µM
SF-268 [8]
  growth at 100 µM: -80%
MOLT-4
  growth at 0.01 µM: 101%
COLO 205 [9]
  growth at 0.01 µM: 93%
K562
  growth at 100 µM: -3%
MDA-MB-231 [10]
  growth at 0.01 µM: 109%
UACC-257
  GI50: 1.87 µM
  LC50: 8.66 µM
  TGI: 4.02 µM
UACC-62
  growth at 0.01 µM: 99%
OVCAR-8 [11]
  growth at 0.01 µM: 100%
Hs-578T
  growth at 0.01 µM: 95%
SF-268 [12]
  growth at 0.01 µM: 99%
A498
  growth at 10 µM: -43%
HCT-116
  growth at 100 µM: -73%
MDA-MB-468 [13]
  growth at 0.1 µM: 83%
PC-3
  growth at 1 µM: 76%
OVCAR-8 [14]
  growth at 1 µM: 81%
MDA-MB-468 [15]
  growth at 0.01 µM: 90%
SK-MEL-28 [16]
  growth at 0.01 µM: 89%
MDA-MB-231 [17]
  growth at 10 µM: 7%
SR
  growth at 0.1 µM: 87%
